Experimental data: the NIST ThermoML archive (doi:10.1021/je800325d)
± gives the expanded uncertainty stated by the source.

How the values were obtained:
[1] = 101.33 kPa, Liquid; for viscosity: Capillary tube (Ostwald / Ubbelohde) method
[2] = refractive index (Na D-line) (dimensionless); details: 101.33 kPa, Liquid, Standard Abbe refractometry
[3] = refractive index (Na D-line) (dimensionless); xn = mol fraction of the nth substance listed; details: 101 kPa, Liquid, Standard Abbe refractometry
[4] = xn = mol fraction of the nth substance listed; details: 101 kPa, Liquid

Cc1ccccc1C [1,2-dimethylbenzene]
Details	refractive index, [2]	viscosity, [1] [mPa·s]
303.15 K	1.5001 ± 0.0007	0.695 ± 0.014
313.15 K	1.4981 ± 0.0007	0.621 ± 0.014

[1], Pycnometric method
Details	mass density [kg/m3]
303.15 K	871.5 ± 0.9
313.15 K	863.3 ± 0.9

Cc1ccc(C)cc1 [1,4-dimethylbenzene]
Details	refractive index, [2]	viscosity, [1] [mPa·s]
303.15 K	1.4911 ± 0.0007	0.566 ± 0.014
313.15 K	1.4902 ± 0.0007	0.517 ± 0.013

[1], Pycnometric method
Details	mass density [kg/m3]
303.15 K	852.1 ± 0.8
313.15 K	843.5 ± 0.8

Cc1cccc(C)c1 [1,3-dimethylbenzene]
Details	refractive index, [2]	viscosity, [1] [mPa·s]
303.15 K	1.492 ± 0.0007	0.557 ± 0.013
313.15 K	1.4901 ± 0.0007	0.508 ± 0.013

[1], Pycnometric method
Details	mass density [kg/m3]
303.15 K	855.3 ± 0.8
313.15 K	847.1 ± 0.8

CCc1ccccc1 [ethylbenzene]
Details	mass density, [1] [kg/m3]	refractive index, [2]	viscosity, [1] [mPa·s]
303.15 K	857.6 ± 3.5	1.491 ± 0.0006	0.597 ± 0.013
313.15 K	849.2 ± 3.9	1.4891 ± 0.0006	0.538 ± 0.013

CC(=O)OCCC(C)C [3-methylbutyl ethanoate]
Details	refractive index, [2]	viscosity, [1] [mPa·s]
303.15 K	1.3959 ± 0.0006	0.741 ± 0.013
313.15 K	1.3945 ± 0.0006	0.649 ± 0.013

[1], Pycnometric method
Details	mass density [kg/m3]
303.15 K	862.3 ± 0.5
313.15 K	852.8 ± 0.5

COC(=O)c1ccccc1 [methyl benzoate]
Details	refractive index, [2]	viscosity, [1] [mPa·s]
303.15 K	1.5127 ± 0.0006	1.679 ± 0.017
313.15 K	1.5083 ± 0.0006	1.414 ± 0.016

[1], Pycnometric method
Details	mass density [kg/m3]
303.15 K	1078.8 ± 0.6
313.15 K	1069.2 ± 0.6

CC(=O)OCCC(C)C [3-methylbutyl ethanoate] + CCc1ccccc1
Details	mass density, [4] [kg/m3]	refractive index, [3]	viscosity, [4] [mPa·s]
303.15 K, x1 = 0.0851	856.9 ± 3.5	1.4802 ± 0.0006	0.597 ± 0.014
303.15 K, x1 = 0.1684	858 ± 3.5	1.4701 ± 0.0006	0.605 ± 0.014
303.15 K, x1 = 0.2613	858.4 ± 3.5	1.4593 ± 0.0006	0.615 ± 0.014
303.15 K, x1 = 0.3719	859 ± 3.5	1.4471 ± 0.0006	0.629 ± 0.014
303.15 K, x1 = 0.4584	859.6 ± 3.5	1.4376 ± 0.0006	0.639 ± 0.014
303.15 K, x1 = 0.538	860.1 ± 3.5	1.4291 ± 0.0006	0.649 ± 0.015
303.15 K, x1 = 0.6532	861.1 ± 3.6	1.4177 ± 0.0006	0.666 ± 0.015
303.15 K, x1 = 0.7513	861.6 ± 3.6	1.4112 ± 0.0006	0.681 ± 0.015
303.15 K, x1 = 0.8475	862 ± 3.6	1.4041 ± 0.0006	0.703 ± 0.015
303.15 K, x1 = 0.9401	862.3 ± 3.6	1.3983 ± 0.0006	0.726 ± 0.015
313.15 K, x1 = 0.0851	848.8 ± 3.9	1.4781 ± 0.0006	0.533 ± 0.014
313.15 K, x1 = 0.1684	849.1 ± 3.9	1.4676 ± 0.0006	0.541 ± 0.014
313.15 K, x1 = 0.2613	849.7 ± 3.9	1.4565 ± 0.0006	0.549 ± 0.014
313.15 K, x1 = 0.3719	850.3 ± 3.9	1.4425 ± 0.0006	0.559 ± 0.014
313.15 K, x1 = 0.4584	850.9 ± 3.9	1.4342 ± 0.0006	0.567 ± 0.014
313.15 K, x1 = 0.538	851.3 ± 3.9	1.4276 ± 0.0006	0.575 ± 0.014
313.15 K, x1 = 0.6532	851.6 ± 3.9	1.4168 ± 0.0006	0.588 ± 0.014
313.15 K, x1 = 0.7513	851.8 ± 3.9	1.4099 ± 0.0006	0.6 ± 0.014
313.15 K, x1 = 0.8475	852.1 ± 3.9	1.4035 ± 0.0006	0.619 ± 0.014
313.15 K, x1 = 0.9401	852.3 ± 3.9	1.3965 ± 0.0006	0.638 ± 0.014
